Legend:
Assay in all cases: Test D controlled growth environment herbicide test, pre- and postemergence
Format in all cases: in vivo
[1] = tested on: barley, winter (winter barley, Hordeum vulgare)
Outline: (§1)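 Rating is visual, 0–100 scale (100 = complete control), made against untreated plants 14–21 d after treatment in controlled growth conditions. Postemergence sprays went onto 1- to 4-leaf plants in peat medium; preemergence sprays onto silt loam after sowing; formulation included a surfactant.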

[2] = tested on: blackgrass (Alopecurus myosuroides)
Outline: as §1

[3] = tested on: bluegrass (annual bluegrass, Poa annua)
Outline: as §1

[4] = tested on: bromegrass, downy (downy bromegrass, Bromus tectorum)
Outline: as §1

[5] = tested on: buckwheat, wild (wild buckwheat, Polygonum convolvulus)
Outline: as §1

[6] = tested on: canarygrass (Phalaris minor)
Outline: as §1

[7] = tested on: foxtail, green (green foxtail, Setaria viridis)
Outline: as §1

[8] = tested on: galium (catchweed bedstraw, Galium aparine)
Outline: as §1

[9] = tested on: lambsquarters (Chenopodium album)
Outline: as §1

[10] = tested on: pigweed (Amaranthus retroflexus)
Outline: as §1

[11] = tested on: ryegrass, Italian (Italian ryegrass, Lolium multiflorum)
Outline: as §1

[12] = tested on: wheat, spring (spring wheat, Triticum aestivum)
Outline: as §1

[13] = tested on: windgrass (Apera spica-venti)
Outline: as §1

[14] = Postemergence, 31 g ai/ha, scale 0 to 100 (0 no effect, 100 complete control)
[15] = Postemergence, 125 g ai/ha, visual rating on scale 0 (no effect) to 100 (complete control), 14 to 21 d
[16] = Postemergence, 250 g ai/ha, scale 0 to 100 (0 no effect, 100 complete control)
[17] = Preemergence, 62 g ai/ha, scale 0 to 100 (0 no effect, 100 complete control)
[18] = Preemergence, 125 g ai/ha, scale 0 to 100 (0 no effect, 100 complete control)
[19] = Preemergence, 250 g ai/ha, scale 0 to 100, 0 no effect, 100 complete control
[20] = postemergence, 62 g ai/ha, scale 0 to 100, 0 no effect, 100 complete control

## Cc1nn(C)c(=O)c(-c2cccc3ccc(Br)cc23)c1O [Compound 126]
[1]; [14]
  Barley, Winter plant response rating: 0
[1]; [15]
  Plant response rating, Barley, Winter: 0
[1]; [16]
  Plant response rating, Barley, Winter: 0
[1]; Preemergence, 31 g ai/ha
  Plant response rating (scale of 0 to 100), Barley, Winter: 0
[1]; [17]
  Plant response rating, Barley, Winter: 0
[1]; [18]
  Plant response rating, Barley, Winter: 0
[1]; [19]
  Plant response rating, Barley, Winter: 5
[1]; [20]
  Plant response rating, Barley, Winter: 5
[2]; [14]
  Blackgrass plant response rating: 15
[2]; [15]
  Plant response rating, Blackgrass: 30
[2]; [16]
  Plant response rating, Blackgrass: 45
[2]; Preemergence, 31 g ai/ha
  Plant response rating (scale of 0 to 100), Blackgrass: 25
[2]; [17]
  Plant response rating, Blackgrass: 45
[2]; [18]
  Plant response rating, Blackgrass: 55
[2]; [19]
  Plant response rating, Blackgrass: 65
[2]; [20]
  Plant response rating, Blackgrass: 20
[3]; [14]
  Bluegrass plant response rating: 0
[3]; [15]
  Plant response rating, Bluegrass: 15
[3]; [16]
  Plant response rating, Bluegrass: 15
[3]; Preemergence, 31 g ai/ha
  Plant response rating (scale of 0 to 100), Bluegrass: 5
[3]; [17]
  Plant response rating, Bluegrass: 5
[3]; [18]
  Plant response rating, Bluegrass: 30
[3]; [19]
  Plant response rating, Bluegrass: 40
[3]; [20]
  Plant response rating, Bluegrass: 10
[4]; [14]
  Bromegrass, Downy plant response rating: 5
[4]; [15]
  Plant response rating, Bromegrass, Downy: 20
[4]; [16]
  Plant response rating, Bromegrass, Downy: 25
[4]; Preemergence, 31 g ai/ha
  Plant response rating (scale of 0 to 100), Bromegrass, Downy: 0
[4]; [17]
  Plant response rating, Bromegrass, Downy: 0
[4]; [18]
  Plant response rating, Bromegrass, Downy: 20
[4]; [19]
  Plant response rating, Bromegrass, Downy: 30
[4]; [20]
  Plant response rating, Bromegrass, Downy: 10
[5]; [14]
  Buckwheat, Wild plant response rating: 70
[5]; [15]
  Plant response rating, Buckwheat, Wild: 100
[5]; [16]
  Plant response rating, Buckwheat, Wild: 100
[5]; Preemergence, 31 g ai/ha
  Plant response rating (scale of 0 to 100), Buckwheat, Wild: 0
[5]; [17]
  Plant response rating, Buckwheat, Wild: 0
[5]; [18]
  Plant response rating, Buckwheat, Wild: 10
[5]; [19]
  Plant response rating, Buckwheat, Wild: 25
[5]; [20]
  Plant response rating, Buckwheat, Wild: 100
[6]; [14]
  Canarygrass plant response rating: 20
[6]; [15]
  Plant response rating, Canarygrass: 45
[6]; [16]
  Plant response rating, Canarygrass: 75
[6]; Preemergence, 31 g ai/ha
  Plant response rating (scale of 0 to 100), Canarygrass: 15
[6]; Preemergence, 62 g ai/ha
  Plant response rating (scale of 0 to 100), Canarygrass: 50
[6]; [18]
  Plant response rating, Canarygrass: 80
[6]; [19]
  Plant response rating, Canarygrass: 90
[6]; [20]
  Plant response rating, Canarygrass: 35
[7]; [14]
  Foxtail, Green plant response rating: 10
[7]; [15]
  Plant response rating, Foxtail, Green: 25
[7]; [16]
  Plant response rating, Foxtail, Green: 25
[7]; Preemergence, 31 g ai/ha
  Plant response rating (scale of 0 to 100), Foxtail, Green: 20
[7]; Preemergence, 62 g ai/ha
  Plant response rating (scale of 0 to 100), Foxtail, Green: 20
[7]; [18]
  Plant response rating, Foxtail, Green: 25
[7]; [19]
  Plant response rating, Foxtail, Green: 45
[7]; [20]
  Plant response rating, Foxtail, Green: 10
[8]; [14]
  Galium plant response rating: 90
[8]; [15]
  Plant response rating, Galium: 100
[8]; [16]
  Plant response rating, Galium: 100
[8]; Preemergence, 31 g ai/ha
  Plant response rating (scale of 0 to 100), Galium: 50
[8]; Preemergence, 62 g ai/ha
  Plant response rating (scale of 0 to 100), Galium: 70
[8]; [18]
  Plant response rating, Galium: 85
[8]; [19]
  Plant response rating, Galium: 98
[8]; [20]
  Plant response rating, Galium: 100
[9]; [14]
  Lambsquarters plant response rating: 90
[9]; [15]
  Plant response rating, Lambsquarters: 100
[9]; [16]
  Plant response rating, Lambsquarters: 100
[9]; Preemergence, 31 g ai/ha
  Plant response rating (scale of 0 to 100), Lambsquarters: 100
[9]; Preemergence, 62 g ai/ha
  Plant response rating (scale of 0 to 100), Lambsquarters: 100
[9]; [18]
  Plant response rating, Lambsquarters: 75
[9]; [19]
  Plant response rating, Lambsquarters: 100
[9]; [20]
  Plant response rating, Lambsquarters: 98
[10]; [14]
  Pigweed plant response rating: 98
[10]; [15]
  Plant response rating, Pigweed: 98
[10]; [16]
  Plant response rating, Pigweed: 98
[10]; Preemergence, 31 g ai/ha
  Plant response rating (scale of 0 to 100), Pigweed: 98
[10]; Preemergence, 62 g ai/ha
  Plant response rating (scale of 0 to 100), Pigweed: 100
[10]; [18]
  Plant response rating, Pigweed: 100
[10]; [19]
  Plant response rating, Pigweed: 100
[10]; [20]
  Plant response rating, Pigweed: 100
[11]; [14]
  Ryegrass, Italian plant response rating: 85
[11]; [15]
  Plant response rating, Ryegrass, Italian: 90
[11]; [16]
  Plant response rating, Ryegrass, Italian: 90
[11]; Preemergence, 31 g ai/ha
  Plant response rating (scale of 0 to 100), Ryegrass, Italian: 75
[11]; Preemergence, 62 g ai/ha
  Plant response rating (scale of 0 to 100), Ryegrass, Italian: 90
[11]; [18]
  Plant response rating, Ryegrass, Italian: 98
[11]; [19]
  Plant response rating, Ryegrass, Italian: 100
[11]; [20]
  Plant response rating, Ryegrass, Italian: 90
[12]; [14]
  Wheat, Spring plant response rating: 0
[12]; [15]
  Plant response rating, Wheat, Spring: 0
[12]; [16]
  Plant response rating, Wheat, Spring: 5
[12]; Preemergence, 31 g ai/ha
  Plant response rating (scale of 0 to 100), Wheat, Spring: 0
[12]; Preemergence, 62 g ai/ha
  Plant response rating (scale of 0 to 100), Wheat, Spring: 0
[12]; [18]
  Plant response rating, Wheat, Spring: 0
[12]; [19]
  Plant response rating, Wheat, Spring: 0
[12]; [20]
  Plant response rating, Wheat, Spring: 0
[13]; [14]
  Windgrass plant response rating: 0
[13]; [15]
  Plant response rating, Windgrass: 30
[13]; [16]
  Plant response rating, Windgrass: 55
[13]; Preemergence, 31 g ai/ha
  Plant response rating (scale of 0 to 100), Windgrass: 25
[13]; Preemergence, 62 g ai/ha
  Plant response rating (scale of 0 to 100), Windgrass: 35
[13]; [18]
  Plant response rating, Windgrass: 75
[13]; [19]
  Plant response rating, Windgrass: 85
[13]; [20]
  Plant response rating, Windgrass: 20
